Measurements as given in patent US7842808B2, “Anti-migraine spirocycles” (Bristol-Myers Squibb Company, priority 2002, dated 2010).
Like-named read-outs stand apart in the source and are kept apart here.

Columns and labels:
[1] = biological target: T1, CGRP receptor (SK-N-MC cell membranes) (Homo sapiens, UniProt O60894+Q16602); assay: CGRP Binding Assay ([125I]-CGRP radioligand binding, SK-N-MC homogenate); conditions: displacement of [125I]-CGRP, SK-N-MC homogenate; read-out: CGRP binding IC50
T1 construct: endogenous in cells; host or cells: SK-N-MC cells (membrane homogenate)

[2] = biological target: T2, human CGRP receptor (SK-N-MC cells) (Homo sapiens, UniProt O60894+Q16602); assay: Cyclic AMP Assay, functional antagonism of CGRP-induced cyclic AMP formation; assay type: cell-based
T2 construct: SK-N-MC cells that endogenously express the human CGRP receptor; endogenous in cells; host or cells: SK-N-MC cells
Method in brief: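 SK-N-MC cells, which endogenously express human CGRP receptor, stimulated with 0.3 nM CGRP with or without compound for 30 min at room temperature. Cellular cAMP extracted by lysis and quantified by SPA radioimmunoassay; IC50 from inhibition of CGRP-induced cAMP.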

[3] = biological target: T2, human CGRP receptor (SK-N-MC cells); assay: Schild analysis of CGRP stimulated cAMP production; assay type: cell-based; conditions: for slope: Schild plot slope
Description: Functional Antagonism. Antagonism of the compounds of invention was determined by measuring the formation of cyclic AMP (adenosine 3′5′-cyclic monophosphate) in SK-N-MC cells that endogenously express the human CGRP receptor. CGRP receptor complex is coupled with Gs protein and CGRP binding to this complex leads to the cyclic AMP production via Gs—dependent activation of an adenylate cyclase (Juaneda C et al., TiPS, 2000; 21:432-438; incorporated by reference herein). Consequently, CGRP receptor antagonists inhibit CGRP-induced cyclic AMP formation in SK-N-MC cells (Doods H et al., Br J Pharmacol, 2000; 129(3):420-423); incorporated by reference herein). For cyclic AMP measurements SK-N-MC cells were incubated with 0.3 nM CGRP alone or in the presence of various concentrations of the compounds of invention for 30 min at room temperature. Compounds of invention were pre-incubated with SK-N-MC cells for 15 min before the addition of CGRP to allow receptor occupancy (Edvinsson et al., Eur J Pharmacol, 2001, 415:39-44; incorporated by reference herein). Cyclic AMP was extracted using the lysis reagent and its concentration was determined by radioimmunoassay using RPA559 cAMP SPA Direct Screening Assay Kit (Amersham Pharmacia Biotech). IC50 values were calculated using Excel fit.
Schild Analysis. Schild analysis can be used to characterize the nature of antagonism of the compounds of invention. The dose response of CGRP stimulated cAMP production was generated either with CGRP alone, or in the presence of various concentrations of compounds of invention. The antagonist dose is plotted as X against the dose ratio (defined as IC50 of agonist with the presence of the compounds divided by the IC50 of the agonist alone) minus 1 as Y. Linear regression was then performed with both X and Y axis log-transformed. […] Kb is the dissociation constant of the antagonist.

[4] = tested on: human cerebral vessels (CGRP-induced dilation); assay: Ex Vivo Human Cerebral Artery Assay, reversal of CGRP-induced relaxation; conditions: reversal of 1 nM hCGRP-induced relaxation, vessels pre-contracted with 10 mM KCl
Description: Rationale and Overview. To provided direct evidence of the ability for novel compounds to reverse CGRP-induced dilation in human cerebral vessels, an ex vivo assay was design. Briefly, isolated vessel rings were mounted in a tissue bath where vessels were pre-contracted with potassium chloride (KCl) and fully dilated with hCGRP, then this relaxation was reversed by the cumulative addition of CGRP-receptor antagonists (complete details follow).
Tissue Samples. Autopsy samples of human arteries were obtained from vendors (ABS Inc. or NDRI). All vessels were transported on ice-cold HEPES buffer (composition in mM: NaCl 130, KCl 4, KH2PO4 1.2, MgSO4 1.2, CaCl2 1.8, Glucose 6, NaHCO3 4, HEPES 10, EDTA 0.025). Upon receipt, the vessels were placed in cold Kreb's buffer (composition in mM: NaCl 118.4, KCl 4.7, KH2PO4 1.2, MgSO4 1.2, CaCl2 1.8, Glucose 10.1, NaHCO3 25) saturated with carbogen (5% CO2 and 95% oxygen).
Isolated Tissue Baths. The vessels were cleaned of connective tissues and cut into cylindrical segments of 4-5 mm in length. The vessels were then mounted in tissue baths between two stainless steel hooks; one of which is fixed and the other of which was connected to a force displacement transducer. The vessel tension was continuously recorded using a data acquisition system (Powerlab, ADInstruments, Mountain View, Calif.) connected to the transducer. The tissue baths containing Krebs buffer and mounted vessels were temperature (37° C.) and pH (7.4) controlled with continuous bubbling of carbogen. The artery segments were allowed to equilibrate for about 30-45 min until a stable resting tone was achieved. Prior to the assay, vessels were primed (conditioned) with 100 mM KCl and subsequently washed. The vessels were pre-contracted with 10 mM KCl and fully dilated with 1 nM hCGRP. Concentration-response curves to CGRP-receptor antagonists were performed by the cumulative addition of drugs in half log units in fully dilated vessels. At each concentration, the effects of the drugs were expressed as % reversal of CGRP-induced relaxation in each vessel. The actual assay and data analysis were performed for each vessel individually, fitting the concentration-response data to a four parameter logistic function by non-linear regression analysis, to estimate the EC50 values.

[5] = SK-N-MC cells, 0.3 nM CGRP, read-out: cAMP Function IC50
[6] = Schild analysis, dissociation constant of the antagonist, read-out: Kb

T1 sequence (Q16602 23-461): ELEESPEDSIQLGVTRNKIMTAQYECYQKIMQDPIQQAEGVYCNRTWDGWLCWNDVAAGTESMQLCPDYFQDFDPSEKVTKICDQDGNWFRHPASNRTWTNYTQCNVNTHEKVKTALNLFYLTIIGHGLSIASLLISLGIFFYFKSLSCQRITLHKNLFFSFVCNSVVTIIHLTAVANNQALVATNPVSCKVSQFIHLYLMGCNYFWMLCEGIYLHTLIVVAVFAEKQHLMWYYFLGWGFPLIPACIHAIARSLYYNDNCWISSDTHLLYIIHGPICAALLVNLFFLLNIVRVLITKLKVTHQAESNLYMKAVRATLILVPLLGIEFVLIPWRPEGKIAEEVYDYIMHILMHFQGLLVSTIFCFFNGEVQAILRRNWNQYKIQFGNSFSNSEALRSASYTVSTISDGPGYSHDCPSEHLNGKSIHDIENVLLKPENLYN
T1 sequence (O60894 27-148): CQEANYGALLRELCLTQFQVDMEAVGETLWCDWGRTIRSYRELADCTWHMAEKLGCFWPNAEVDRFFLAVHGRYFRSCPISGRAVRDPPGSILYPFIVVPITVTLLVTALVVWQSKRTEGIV
T2 sequence (Q16602 23-461): as the sequence (Q16602 23-461) above
T2 sequence (O60894 27-148): as the sequence (O60894 27-148) above

Structure (SMILES)	IC50 [1] [nM]	IC50 [2] [nM]	slope [3]	EC50 [4] [nM]	IC50 [2, 5] [nM]	Kb [3, 6] [nM]	Kb [3] [nM]
Cc1cc(CC(CC(=O)N2CCC(N3Cc4ccccc4NC3=O)CC2)C(=O)N2CCC3(CC2)OCCO3)cc2cn[nH]c12 (racemic) [Example 70, (±)-1-(1,4-Dioxa-8-aza-spiro[4.5]dec-8-yl)-2-(7-methyl-1H-indazol-5-ylmethyl)-4-[4-(2-oxo-1,4-dihydro-2H-quinazolin-3-yl)-piperidin-1-yl]-butane-1,4-dione]	< 10	< 10	0.71	< 10			
Cc1cc(CC(NC(=O)N2CCC(N3Cc4ccccc4NC3=O)CC2)C(=O)N(C)C)cc2cn[nH]c12 (racemic) [Example 18, (±)-4-(2-Oxo-1,4-dihydro-2H-quinazolin-3-yl)-piperidine-1-carboxylic acid[1-dimethylcarbamoyl-2-(7-methyl-1H-indazol-5-yl)-ethyl]-amide]	< 10		0.8	< 10	10 to 100	1	
O=C(N[C@H](Cc1ccc2[nH]c(=O)oc2c1)C(=O)N1CCC(N2CCCCC2)CC1)N1CCC(N2Cc3ccccc3NC2=O)CC1 [Example 47, (R)-4-(2-Oxo-1,4-dihydro-2H-quinazolin-3-yl)-piperidine-1-carboxylic acid[2-[1,4′]bipiperidinyl-1′-yl-2-oxo-1-(2-oxo-2,3-dihydro-benzooxazol-6-ylmethyl)-ethyl]-amide]	< 10		0.93	< 10	< 10	0.1	
O=C(NC(Cc1ccc2[nH]ccc2c1)C(=O)N1CCC(N2CCCCC2)CC1)N1CCC(N2Cc3ccccc3NC2=O)CC1 (racemic) [Example 5, (±)-4-(2-Oxo-1,4-dihydro-2H-quinazolin-3-yl)-piperidine-1-carboxylic acid[2-[1,4′]bipiperidinyl-1′-yl-1-(1H-indol-5-ylmethyl)-2-oxo-ethyl]-amide]	< 10		0.92		< 10	3	
CCc1cc(CC(NC(=O)N2CCC(N3Cc4ccccc4NC3=O)CC2)C(=O)N2CCC(N3CCCCC3)CC2)cc2cn[nH]c12 (racemic) [Example 45, (±)-4-(2-Oxo-1,4-dihydro-2H-quinazolin-3-yl)-piperidine-1-carboxylic acid[2-[1,4′]bipiperidinyl-1′-yl-1-(7-ethyl-1H-indazol-5-ylmethyl)-2-oxo-ethyl]-amide]	< 10		1.4				
Cc1cc(CC(NC(=O)N2CCC(N3Cc4ccccc4NC3=O)CC2)C(=O)N2CCCCC2)cc2cn[nH]c12 (racemic) [Example 17, (±)-4-(2-Oxo-1,4-dihydro-2H-quinazolin-3-yl)-piperidine-1-carboxylic acid[1-(7-methyl-1H-indazol-5-ylmethyl)-2-oxo-2-piperidin-1-yl-ethyl]-amide]	< 10		0.92	< 10	< 10	1.1	
Cc1cc(CC(CC(=O)N2CCC3(CC2)OC(=O)Nc2ccccc23)C(=O)N2CCC3(CC2)OCCO3)cc2cn[nH]c12 (racemic) [Example 71, (±)-1-(1,4-Dioxa-8-aza-spiro[4.5]dec-8-yl)-2-(7-methyl-1H-indazol-5-ylmethyl)-4-[1′,2′-dihydro-2′-oxospiro-[4H-3′,1-benzoxazine-4,4′-piperidinyl]-butane-1,4-dione]	< 10	< 10	0.87	< 10			2
COC(=O)C(CC(=O)N1CCC(N2Cc3ccccc3NC2=O)CC1)Cc1cc(C)c2[nH]ncc2c1 (racemic) [Example 67, (±)-2-(7-Methyl-1H-indazol-5-ylmethyl)-4-oxo-4-[4-(2-oxo-1,4-dihydro-2H-quinazolin-3-yl)-piperidin-1-yl]-butyric acid methyl ester]	10 to 100			10 to 100	100 to 1000		
Cc1cc(CC(NC(=O)N2CCC3(CC2)OC(=O)Nc2ccccc23)C(=O)N2CCC(N3CCCCC3)CC2)cc2cn[nH]c12 (racemic) [Example 25, (±)-1-(7-Methyl-1H-indazol-5-ylmethyl)-2-[1,4-bipiperidin]-1-yl-2-oxoethyl]-1′,2′-dihydro-2′-oxospiro-[4H-3′,1-benzoxazine-4,4′-piperidine]-1-carboxamide]	< 10			< 10	< 10		
Cc1cc(CC(CC(=O)N2CCC(N3Cc4ccccc4NC3=O)CC2)C(=O)N2CCC(C)CC2)cc2cn[nH]c12 (racemic) [Example 74, (±)-2-(7-Methyl-1H-indazol-5-ylmethyl)-1-(4-methyl-piperidin-1-yl)-4-[4-(2-oxo-1,4-dihydro-2H-quinazolin-3-yl)-piperidin-1-yl]-butane-1,4-dione]	< 10			< 10	< 10		
Cc1cc(CC(NC(=O)N2CCC(N3Cc4ccccc4NC3=O)CC2)C(=O)N2CCN(c3ccncc3)CC2)cc2cn[nH]c12 (racemic) [Example 21, (±)-4-(2-Oxo-1,4-dihydro-2H-quinazolin-3-yl)-piperidine-1-carboxylic acid[1-(7-methyl-1H-indazol-5-ylmethyl)-2-oxo-2-(4-pyridin-4-yl-piperazin-1-yl)-ethyl]-amide]	< 10		0.89	< 10	< 10	0.018	
Cc1cc(CC(NC(=O)N2CCC(N3Cc4ccccc4NC3=O)CC2)C(=O)N2CCN(C)CC2)cc2cn[nH]c12 (racemic) [Example 19, (±)-4-(2-Oxo-1,4-dihydro-2H-quinazolin-3-yl)-piperidine-1-carboxylic acid[1-(7-methyl-1H-indazol-5-ylmethyl)-2-(4-methyl-piperazin-1-yl)-2-oxo-ethyl]-amide]	< 10			< 10	< 10		
Cc1cc(CC(NC(=O)N2CCC3(CC2)NC(=O)Nc2ccccc23)C(=O)N2CCC(N3CCCCC3)CC2)cc2cn[nH]c12 (racemic) [Example 23, (±)-1-(7-Methyl-1H-indazol-5-ylmethyl)-2-[1,4-bipiperidin]-1-yl-2-oxoethyl]-2′,3′-dihydro-2′-oxospiro-[piperidine-4,4′-(1H)-quinazoline]-1-carboxamide]	< 10			< 10	< 10		
Cc1cc(CC(CC(=O)N2CCC3(CC2)OC(=O)Nc2ccccc23)C(=O)N2CCC(N3CCCCC3)CC2)cc2cn[nH]c12 (racemic) [Example 68, (±)-1-[1,4′]Bipiperidinyl-1′-yl-2-(7-methyl-1H-indazol-5-ylmethyl)-4-[1′,2′-dihydro-2′-oxospiro-[4H-3′,1-benzoxazine-4,4′-piperidinyl]-butane-1,4-dione]	< 10			< 10	< 10		
